Reference: ChEMBL document CHEMBL1201862, “PubChem BioAssay data set” (2004)
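1) Cells in 96-well plates. 2) Compound, 48 h, 5 concentrations. 3) Linear interpolation between surrounding doses. 4) Unreached endpoint = highest concentration. GI50 = concentration required for 50% inhibition of growth.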 Activity calls are given as the source filed them. No stated cut-off is given here; in the data, active = GI50 up to about 1.1 µM and inactive = higher.

How the values were obtained:
Test in all cases: NCI tumour cell line growth inhibition, 48 h
NCI-H460 = test system: NCI-H460
OVCAR-4 = test system: OVCAR-4
NCI/ADR-RES = test system: NCI/ADR-RES
UACC-62 = test system: UACC-62
SF-539 = test system: SF-539
PC-3 = test system: PC-3
NCI-H23 = test system: NCI-H23
U-251 = test system: U-251
A549 = test system: A549
SK-OV-3 = test system: SK-OV-3
HCT-15 = test system: HCT-15
RXF 393 = test system: RXF 393
KM12 = test system: KM12
MDA-MB-231 = test system: MDA-MB-231
MCF7 = test system: MCF7
A498 = test system: A498
CCRF-CEM = test system: CCRF-CEM
OVCAR-3 = test system: OVCAR-3

| Structure (SMILES) | GI50 (NCI-H460) | GI50 (OVCAR-4) | GI50 (NCI/ADR-RES) | GI50 (UACC-62) | GI50 (SF-539) | GI50 (PC-3) | GI50 (NCI-H23) | GI50 (U-251) | GI50 (A549) | GI50 (SK-OV-3) | GI50 (HCT-15) | GI50 (RXF 393) | GI50 (KM12) | GI50 (MDA-MB-231) | GI50 (MCF7) | GI50 (A498) | GI50 (CCRF-CEM) | GI50 (OVCAR-3) |
| --- | --- | --- | --- | --- | --- | --- | --- | --- | --- | --- | --- | --- | --- | --- | --- | --- | --- | --- |
| O=C(CSc1nnc(SCC(=O)NN=C2CCCCC2)s1)NN=C1CCCCC1 | > 100 µM (inactive) | > 100 µM (inactive) | > 100 µM (inactive) | > 100 µM (inactive) | > 100 µM (inactive) | > 100 µM (inactive) | > 100 µM (inactive) | > 100 µM (inactive) | > 100 µM (inactive) | > 100 µM (inactive) | > 100 µM | > 100 µM (inactive) | > 100 µM (inactive) | > 100 µM (inactive) | > 100 µM (inactive) | > 100 µM (inactive) | > 100 µM (inactive) | > 100 µM (inactive) |
| C[C@@H]1CC[C@@H]2[C@@H](C1)O[C@@H]([C@H](C)OCc1ccccc1)SC2(C)C | 20.7 µM (inactive) | 28.3 µM (inactive) | 25.5 µM (inactive) | 36.4 µM (inactive) | 29.2 µM (inactive) | 31.5 µM (inactive) | 31.8 µM (inactive) | 17.9 µM (inactive) | 26.3 µM (inactive) | 30.5 µM (inactive) | 27.8 µM | 17.6 µM (inactive) | 18.5 µM (inactive) | 19.7 µM (inactive) | 16.9 µM (inactive) | 19.7 µM (inactive) |  |  |
| C=C(C)C1(Sc2ccc(OC)cc2)CC1 | 31 µM (inactive) | 34.9 µM (inactive) | 37.4 µM (inactive) | 51.9 µM (inactive) | 23.2 µM (inactive) | 29.3 µM (inactive) | 31.2 µM (inactive) | 29 µM (inactive) | 30.8 µM (inactive) | 30.5 µM (inactive) | 24.4 µM | 17.6 µM (inactive) | 25 µM (inactive) | 43.4 µM (inactive) | 32.3 µM (inactive) | 29.3 µM (inactive) | 17.5 µM (inactive) | 14.5 µM (inactive) |
| O=C1C(O)=C(Cl)C(=O)c2c(O)ccc(O)c21 | > 100 µM (inactive) | > 100 µM (inactive) | > 100 µM (inactive) | > 100 µM (inactive) | > 100 µM (inactive) | > 100 µM (inactive) | > 100 µM (inactive) | > 100 µM (inactive) | > 100 µM (inactive) |  | > 100 µM | > 100 µM (inactive) | > 100 µM (inactive) | > 100 µM (inactive) | > 100 µM (inactive) | > 100 µM (inactive) | > 100 µM (inactive) | > 100 µM (inactive) |
| CC(C)c1ccc(/C=C2\CSCC3=C2N=C(S)NC3c2ccc(C(C)C)cc2)cc1 (configuration not stated) | > 100 µM (inactive) | > 100 µM (inactive) | > 100 µM (inactive) | 88.3 µM (inactive) | > 100 µM (inactive) | 28.9 µM (inactive) | 46.5 µM (inactive) | 85.1 µM (inactive) | 80.9 µM (inactive) | > 100 µM (inactive) | 89.5 µM | 30.9 µM (inactive) | > 100 µM (inactive) | > 100 µM (inactive) | 88.3 µM (inactive) |  | 35.8 µM (inactive) | > 100 µM (inactive) |
| O=C1NC(=S)NC(=O)C1C(c1ccc(O)cc1)C1C(=O)NC(=S)NC1=O.c1ccncc1 | > 100 µM (inactive) | > 100 µM (inactive) | > 100 µM (inactive) | > 100 µM (inactive) |  | > 100 µM (inactive) | > 100 µM (inactive) | > 100 µM (inactive) | > 100 µM (inactive) |  | > 100 µM | > 100 µM (inactive) | > 100 µM (inactive) | > 100 µM (inactive) | > 100 µM (inactive) | > 100 µM (inactive) | > 100 µM (inactive) | > 100 µM (inactive) |
